Active and inactive are the calls of the source. The calls are words filed in the database; no cut-off is given here.
Columns and labels:
Rattus norvegicus [1] = assay: Reversal of amyloid beta (1 to 42 residues) induced cognitive impairment in Wistar rat assessed as decrease in alpha-synuclein protein level at 10 mg/kg, po pretreated with amyloid beta for 7 days followed by compound administration for 9 days and measured after 5 days by Western blot analysis; format: functional, organism-based; conditions: time 14.0 day
[2] = molecular target: Amyloid-beta precursor protein (Homo sapiens) (UniProt P05067); assay: Inhibition of amyloid beta (1 to 42) (unknown origin) aggregation assessed as reduction in fluorescence intensity at 50 uM incubated for 48 hrs by confocal microscopic analysis
Amyloid-beta precursor protein (Homo sapiens), sequence (P05067 whole entry, the tested form may be a part): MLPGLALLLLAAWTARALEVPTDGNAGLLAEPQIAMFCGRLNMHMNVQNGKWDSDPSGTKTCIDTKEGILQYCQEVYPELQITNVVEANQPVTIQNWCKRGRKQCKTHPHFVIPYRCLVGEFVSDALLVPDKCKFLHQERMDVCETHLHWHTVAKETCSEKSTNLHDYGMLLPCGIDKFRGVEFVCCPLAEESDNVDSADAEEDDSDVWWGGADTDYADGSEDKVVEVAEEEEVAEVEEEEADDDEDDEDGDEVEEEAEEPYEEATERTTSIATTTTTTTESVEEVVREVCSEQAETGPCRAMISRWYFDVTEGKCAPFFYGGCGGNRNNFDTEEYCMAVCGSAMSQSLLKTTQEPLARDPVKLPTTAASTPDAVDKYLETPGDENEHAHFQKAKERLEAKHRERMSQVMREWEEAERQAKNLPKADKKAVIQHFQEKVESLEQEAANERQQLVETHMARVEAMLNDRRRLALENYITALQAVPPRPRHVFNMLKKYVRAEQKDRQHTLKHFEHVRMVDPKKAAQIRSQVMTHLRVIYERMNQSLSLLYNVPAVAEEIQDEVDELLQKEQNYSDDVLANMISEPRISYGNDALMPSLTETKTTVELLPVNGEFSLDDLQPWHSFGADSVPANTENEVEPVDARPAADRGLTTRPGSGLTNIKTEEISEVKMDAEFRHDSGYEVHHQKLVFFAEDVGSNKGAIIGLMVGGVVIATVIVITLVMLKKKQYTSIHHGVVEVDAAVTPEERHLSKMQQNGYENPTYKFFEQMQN

Rattus norvegicus [3] = assay: Reversal of amyloid beta (1 to 42 residues) induced cognitive impairment in Wistar rat assessed as decrease in BACE-1 level in CA3 region of hippocampus at 10 mg/kg, po pretreated with amyloid beta for 7 days followed by compound administration for 9 days and measured after 5 days by immuno histochemical analysis; format: functional, organism-based; conditions: time 14.0 day
Rattus norvegicus [4] = assay: Reversal of amyloid beta (1 to 42 residues) induced cognitive impairment in Wistar rat assessed as reduction in focal gliosis in cerebral cortex at 2.5 to 10 mg/kg, po pretreated with amyloid beta for 7 days followed by compound administration for 9 days and measured after 5 days by Nissl's staining based analysis; format: functional, organism-based; conditions: dose 2.5-10 mg/kg, time 14.0 day
[5] = Toxicity in wildtype Oregon R-positive Drosophila assessed as eclosion at 10 uM pretreated for 5 days and measured for 15 days relative to control; conditions: 480 h, time 20 day
[6] = MRT in male Wistar rat at 10 mg/kg, po measured after 72 hrs by HPLC analysis; format: ADME, organism-based; conditions: in vivo
[7] = Toxicity in wildtype Oregon R-positive Drosophila assessed as cell viability in gut at 5 uM by MTT assay relative to control; format: tissue-based; conditions: read-out: Activity
[8] = Acute toxicity in Wistar rat assessed as effect on vacuole appearance in liver at 500 to 1000 mg/kg, po administered for 14 days by histopathological analysis; format: organism-based; conditions: in vivo, 336 h, dose 500-1000 mg/kg, time 14 day
Rattus norvegicus [9] = assay: Reversal of amyloid beta (1 to 42 residues) induced cognitive impairment in Wistar rat assessed as increase in platform crossings at 10 mg/kg, po pretreated with amyloid beta for 7 days followed by compound administration for 9 days and measured after 1 days by Morris water maze test; format: functional, organism-based; conditions: time 10.0 day
Acetylcholinesterase [10] = molecular target: T1, Acetylcholinesterase (Homo sapiens, UniProt P22303); assay: Mixed type non-competitive inhibition of human erythrocyte AChE using acetylthiocholine iodide as substrate assessed as dissociation constant by dixon plot analysis
T1 sequence (P22303 whole entry): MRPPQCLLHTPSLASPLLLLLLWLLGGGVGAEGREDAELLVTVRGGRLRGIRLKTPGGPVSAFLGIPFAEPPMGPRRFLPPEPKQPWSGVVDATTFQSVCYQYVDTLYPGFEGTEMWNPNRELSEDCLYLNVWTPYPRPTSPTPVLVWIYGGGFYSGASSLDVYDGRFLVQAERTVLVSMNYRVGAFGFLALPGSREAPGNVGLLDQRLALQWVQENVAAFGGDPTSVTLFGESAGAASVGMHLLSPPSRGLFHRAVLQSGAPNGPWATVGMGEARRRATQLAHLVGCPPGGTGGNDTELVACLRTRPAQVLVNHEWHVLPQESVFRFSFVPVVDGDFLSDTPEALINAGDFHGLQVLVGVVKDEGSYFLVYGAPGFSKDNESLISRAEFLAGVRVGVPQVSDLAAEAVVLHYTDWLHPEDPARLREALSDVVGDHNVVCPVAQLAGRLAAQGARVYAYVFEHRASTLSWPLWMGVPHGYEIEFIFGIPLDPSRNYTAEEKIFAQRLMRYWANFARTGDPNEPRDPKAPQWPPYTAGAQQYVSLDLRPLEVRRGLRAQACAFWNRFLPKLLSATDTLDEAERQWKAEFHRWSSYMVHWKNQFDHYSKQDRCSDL

[11] = Acute toxicity in Wistar rat assessed as body weight loss at 500 to 1000 mg/kg, po measured for 2 to 3 days relative to control; format: organism-based; conditions: in vivo, dose lower 500 mg/kg, time lower 2 day, dose upper 1000 mg/kg, time upper 3 day
Rattus norvegicus [12] = assay: Reversal of amyloid beta (1 to 42 residues) induced cognitive impairment in Wistar rat assessed as decrease in amyloid level in DG region of hippocampus at 10 mg/kg, po pretreated with amyloid beta for 7 days followed by compound administration for 9 days and measured after 5 days by immuno histochemical analysis; format: functional, organism-based; conditions: time 14.0 day
Rattus norvegicus [13] = assay: Reversal of amyloid beta (1 to 42 residues) induced cognitive impairment in Wistar rat assessed as decrease in BACE-1 level in CA1 region of hippocampus at 10 mg/kg, po pretreated with amyloid beta for 7 days followed by compound administration for 9 days and measured after 5 days by immuno histochemical analysis; format: functional, organism-based; conditions: time 14.0 day
[14] = Permeability of compound in PBS at pH 7.4 incubated for 18 hrs by PAMPA-BBB assay
[15] = Acute toxicity in Wistar rat assessed as effect on glomerulus shape at 500 to 1000 mg/kg, po administered for 14 days by histopathological analysis; format: organism-based; conditions: in vivo, 336 h, dose 500-1000 mg/kg, time 14 day
[16] = Toxicity in wildtype Oregon R-positive Drosophila assessed as reduction in eclosion at 100 to 200 uM pretreated for 5 days and measured for 15 days; conditions: 480 h, dose 100-200 µM, time 20 day
Rattus norvegicus [17] = assay: Upregulation of ACh level in scopolamine-induced male Wistar rat brain hippocampus preadministered with compound orally for 30 mins starting from 7 th day trail followed by scopolamine administration and measured after 5 mins by GENELISA; format: functional, tissue-based; conditions: dose 2.5-10 mg/kg, route po, time 35.0 min
[18] = molecular target: Amyloid-beta precursor protein (Homo sapiens) (UniProt P05067); assay: Inhibition of amyloid beta (1 to 42) (unknown origin) aggregation assessed as maximum peak height of aggregates incubated for 48 hrs by AFM analysis
[19] = Toxicity in wildtype Oregon R-positive Drosophila assessed as cell viability in gut at 50 uM by MTT assay relative to control; format: tissue-based; conditions: read-out: Activity
[20] = Acute toxicity in Wistar rat assessed as effect on central vein appearance in liver at 500 to 1000 mg/kg, po administered for 14 days by histopathological analysis; format: organism-based; conditions: in vivo, 336 h, dose 500-1000 mg/kg, time 14 day
[21] = molecular target: Amyloid-beta precursor protein (Homo sapiens) (UniProt P05067); assay: Inhibition of amyloid beta (1 to 42) (unknown origin) aggregation assessed as appearance of thinner aggregates at 50 uM incubated for 48 hrs by TEM imaging analysis
Drosophila = assay: Neuroprotective activity in ey-GAL4>UAS-amyloid beta (1 to 42) induced cellular toxicity in Oregon R-positive Drosophila model assessed as rescue in eye phenotype at 20 uM by Stereo zoom microscopic imaging analysis relative to control; format: functional
Rattus norvegicus [22] = assay: Reversal of amyloid beta (1 to 42 residues) induced cognitive impairment in Wistar rat assessed as decrease in APP protein level at 10 mg/kg, po pretreated with amyloid beta for 7 days followed by compound administration for 9 days and measured after 5 days by Western blot analysis; format: functional, organism-based; conditions: time 14.0 day
[23] = Tmax in male Wistar rat at 10 mg/kg, po measured after 72 hrs by HPLC analysis; format: ADME, organism-based; conditions: in vivo
Acetylcholinesterase [24] = molecular target: T1, Acetylcholinesterase; assay: Mixed type non-competitive inhibition of human erythrocyte AChE using acetylthiocholine iodide as substrate assessed as decrease in Vmax with increase in Km at 0.25 to 0.75 uM by Lineweaver-burk plot analysis; conditions: dose 0.25-0.75 µM
Rattus norvegicus [25] = assay: Reversal of amyloid beta (1 to 42 residues) induced cognitive impairment in Wistar rat assessed as reduction in escape latency time at 10 mg/kg, po pretreated with amyloid beta for 7 days followed by compound administration for 9 days and measured after 1 days by Morris water maze test; format: functional, organism-based; conditions: time 10.0 day
Hippocampus [26] = assay: Reversal of scopolamine-induced oxidative stress in male Wistar rat brain hippocampus assessed as increase in catalase level preadministered orally with compound for 30 mins starting from 7 th day trail followed by scopolamine administration and measured after 5 mins by spectrophotometric analysis; format: functional, tissue-based; conditions: dose 2.5-10 mg/kg, route po, time 35.0 min
[27] = Acute toxicity in Wistar rat assessed as effect on PCT shape at 500 to 1000 mg/kg, po administered for 14 days by histopathological analysis; format: organism-based; conditions: in vivo, 336 h, dose 500-1000 mg/kg, time 14 day
Hippocampus [28] = assay: Reversal of scopolamine-induced oxidative stress in male Wistar rat brain hippocampus assessed as increase in GSH level preadministered orally with compound for 30 mins starting from 7 th day trail followed by scopolamine administration and measured after 5 mins; format: functional, tissue-based; conditions: dose 2.5-10 mg/kg, route po, time 35.0 min
[29] = Acute toxicity in Wistar rat assessed as effect on kupffer cells appearance in liver at 500 to 1000 mg/kg, po administered for 14 days by histopathological analysis; format: organism-based; conditions: in vivo, 336 h, dose 500-1000 mg/kg, time 14 day
SH-SY5Y = assay: Neuroprotective activity against amyloid-beta(1 to 42) induced oxidative stress in differentiated human SH-SY5Y cells assessed as increase in cell viability at 40 uM preincubated with amyloid-beta (1 to 42 ) for 24 hrs followed by compound addition and measured after 72 hrs by MTT assay relative to control; format: functional

With `COc1cc(NC(=O)Cn2nc(-c3ccccc3)c(-c3ccccc3)nc2=O)cc(OC)c1` the Activity (Rattus norvegicus [1]) was “Active”, the inhibition [2] was “Active” and the Activity (Rattus norvegicus [3]) was “Active”. The Activity (Rattus norvegicus [4]) was “Active”, the Activity [5] was 85% and the MRT [6] was 32 h. The viability at 5 µM [7] was 97%, the Activity [8] was “Non-Toxic” and the Activity (Rattus norvegicus [9]) was “inactive”. The Kd (Acetylcholinesterase [10]) was 412 nM, the Activity [11] was 7% and the Activity (Rattus norvegicus [12]) was “Active”. For the same compound, the Activity (Rattus norvegicus [13]) was “Active”, the Papp at 18 h [14] was 5.64 ×10⁻⁶ cm/s and the Activity [15] was “Non-Toxic”. For the same compound, the Activity [16] was “Toxic”, the Activity (Rattus norvegicus [17]) was “Dose-Dependent Effect” and the Activity [18] was 253 nm. For the same compound, the viability at 50 µM [19] was 38%, the Activity [20] was “Non-Toxic” and the inhibition [21] was “Active”. The Activity (Drosophila) was 57%, the Activity (Rattus norvegicus [22]) was “Active” and the Tmax [23] was 9 h. For the same compound, the inhibition (Acetylcholinesterase [24]) was “Active”, the Activity (Rattus norvegicus [25]) was “inactive” and the Activity (Hippocampus [26]) was “Dose-Dependent Effect”. The Activity [27] was “Non-Toxic”, the Activity (Hippocampus [28]) was “Dose-Dependent Effect” and the Activity [29] was “Non-Toxic”. It also gave an Activity (SH-SY5Y) of 82%.
